Measured values published in patent publication US9556159B2, “Renin inhibitor” (MITSUBISHI TANABE PHARMA CORPORATION, priority 2012, dated 2017).

The compounds below were run against T1, Recombinant human renin (Homo sapiens, UniProt P00797) (assay: Inhibitory activity against human renin (fluorogenic peptide substrate)). Conditions: 50% inhibitory concentration (IC50) against human renin, 37° C. for 1 hour.
T1 sequence (P00797 67-406): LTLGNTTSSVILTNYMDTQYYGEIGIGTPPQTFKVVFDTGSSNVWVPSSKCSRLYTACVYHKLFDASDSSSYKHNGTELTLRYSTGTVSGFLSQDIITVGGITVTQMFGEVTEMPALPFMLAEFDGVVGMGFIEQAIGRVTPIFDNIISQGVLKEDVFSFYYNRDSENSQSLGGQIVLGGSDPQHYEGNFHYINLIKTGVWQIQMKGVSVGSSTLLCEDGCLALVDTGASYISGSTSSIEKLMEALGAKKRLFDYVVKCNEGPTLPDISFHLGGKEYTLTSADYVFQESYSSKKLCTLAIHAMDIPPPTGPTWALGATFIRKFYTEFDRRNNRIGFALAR
Format: biochemical
`COC(=O)NCCCn1cc([C@@H](C)N(C(=O)[C@H]2CNCCO2)C2CC2)c2ncc(C(C)C)nc21` [Example 162] was tested, and the IC50 was 0.6 nM.
`COC(=O)NCCCn1cc([C@@H](C)N(C(=O)[C@H]2CNCCO2)C2CC2)nc1-c1ccc(C)cc1` [Example 163] gave an IC50 of 0.4 nM.
`COC(=O)NCCCn1cc([C@@H](C)N(C(=O)[C@H]2CNCCO2)C2CC2)nc1-c1ccc(C(F)(F)F)cc1` [Example 164] showed an IC50 of 0.6 nM.
Work on `COC(=O)NCCCn1cc([C@@H](C)N(C(=O)[C@H]2CNCCO2)C2CC2)nc1-c1cccc(F)c1` [Example 165] yielded an IC50 of 0.6 nM.
Work on `COC(=O)NCCCn1nc([C@@H](C)N(C(=O)[C@H]2CNCC(C)(C)O2)C2CC2)c2ccc(C)nc21` [Example 166] yielded an IC50 of 7 nM.
`COC(=O)NCCCc1cc([C@@H](C)N(C(=O)[C@H]2CNCCO2)C2CC2)nc2ccoc12` [Example 167] gave an IC50 of 4.1 nM.
Compound `COC(=O)NCCCn1cc([C@@H](C)N(C(=O)[C@H]2CNCCO2)C2CC2)nc1-c1ccccc1F` [Example 168] has an IC50 of 0.3 nM.
`COC(=O)NCCCn1cc([C@@H](C)N(C(=O)[C@H]2CNCCO2)C2CC2)nc1-c1ccccc1Cl` [Example 169] was tested, and the IC50 was 0.3 nM.
`COC(=O)NCCCn1cc([C@@H](C)N(C(=O)[C@H]2CNCCO2)C2CC2)nc1-c1ccc(Cl)cc1` [Example 170] showed an IC50 of 0.4 nM.
`COC(=O)NCCCn1cc([C@@H](C)N(C(=O)[C@H]2CNCCO2)C2CC2)nc1-c1ccc(F)cc1` [Example 171] gave an IC50 of 0.4 nM.
In the case of `COC(=O)NCCCn1nc([C@@H](C)N(C(=O)[C@H]2CNCCO2)C2CC2)cc1-c1cccc(F)c1` [Example 172], the IC50 is reported as 0.4 nM.
Compound `COC(=O)NCCCn1nc([C@@H](C)N(C(=O)[C@H]2CNCCO2)C2CC2)cc1-c1ccccc1F` [Example 173] has an IC50 of 0.3 nM.
`COC(=O)NCCCn1nc([C@@H](C)N(C(=O)[C@H]2CNCCO2)C2CC2)cc1-c1ccc(OC)nc1` [Example 174] gave an IC50 of 0.4 nM.
Work on `COC(=O)NCCCn1cc([C@@H](C)N(C(=O)[C@H]2CNCCO2)C2CC2)nc1-c1cccc(Cl)c1` [Example 175] yielded an IC50 of 0.3 nM.
For `COC(=O)NCCCn1nc([C@@H](C)N(C(=O)[C@H]2CNCCO2)C2CC2)cc1-c1cccc(C)n1` [Example 176], the IC50 was 0.4 nM.
`COC(=O)NCCCn1nc([C@@H](C)N(C(=O)[C@H]2CNCCO2)C2CC2)cc1-c1ccc(F)cn1` [Example 177] was tested, and the IC50 was 1 nM.
Work on `COC(=O)NCCCn1cc([C@@H](C)N(C(=O)[C@H]2CNCCO2)C2CC2)nc1-c1cccc(C)c1` [Example 178] yielded an IC50 of 0.3 nM.
Compound `COC(=O)NCCCn1cc([C@@H](C)N(C(=O)[C@H]2CNCCO2)C2CC2)nc1-c1ccccc1C` [Example 179] has an IC50 of 0.3 nM.
For `COC(=O)NCCCn1nc([C@@H](C)N(C(=O)[C@H]2CNCCO2)C2CC2)cc1-c1ccc(C)nc1` [Example 180], the IC50 was 0.6 nM.
Work on `COC(=O)NCCCn1cc([C@@H](C)N(C(=O)[C@H]2CNCCO2)C2CC2)nc1C(C)C` [Example 181] yielded an IC50 of 0.7 nM.
Compound `COC(=O)NCCCc1nc([C@@H](C)N(C(=O)[C@H]2CNCCO2)C2CC2)cn1-c1ccccc1` [Example 182] has an IC50 of 0.7 nM.
In the case of `COC(=O)NCCCc1cc([C@@H](C)N(C(=O)[C@H]2CNCCO2)C2CC2)nn1-c1ccccc1` [Example 183], the IC50 is reported as 0.3 nM.
Compound `COC(=O)NCCCn1nc([C@@H](C)N(C(=O)[C@H]2CNCCO2)C2CC2)cc1-c1ccc(C)cn1` [Example 184] has an IC50 of 0.5 nM.
Compound `COC(=O)NCCCn1nc([C@@H](C)N(C(=O)[C@H]2CNCCO2)C2CC2)cc1-c1ncccc1F` [Example 185] has an IC50 of 0.3 nM.
`COC(=O)NCCCn1nc([C@@H](C)N(C(=O)[C@H]2CNCCO2)C2CC2)cc1-c1cccnc1` [Example 186] showed an IC50 of 0.4 nM.
For `COC(=O)NCCCn1nc([C@@H](C)N(C(=O)[C@H]2CNCCO2)C2CC2)cc1-c1ncccc1C` [Example 187], the IC50 was 0.5 nM.
`COC(=O)NCCCn1nc([C@@H](C)N(C(=O)[C@H]2CNCCO2)C2CC2)cc1C(C)C` [Example 188] was tested, and the IC50 was 0.5 nM.
In the case of `COC(=O)NCCCn1nc([C@@H](C)N(C(=O)[C@H]2CNCCO2)C2CC2)c2c1CCCC2` [Example 189], the IC50 is reported as 0.9 nM.
Compound `COC(=O)NCCCn1nc([C@@H](C)N(C(=O)[C@H]2CNCCO2)C2CC2)c2c1CCC2` [Example 190] has an IC50 of 1.2 nM.
`COC(=O)NCCCn1nc([C@@H](C)N(C(=O)[C@H]2CNCCO2)C2CC2)cc1C(C)(C)C` [Example 191] was tested, and the IC50 was 0.7 nM.
Work on `COC(=O)NCCCn1nc([C@@H](C)N(C(=O)[C@H]2CNCCO2)C2CC2)c(F)c1-c1ccccc1` [Example 192] yielded an IC50 of 0.2 nM.
`COC(=O)NCC(F)Cn1nc([C@@H](C)N(C(=O)[C@H]2CNCCO2)C2CC2)cc1-c1ccccc1` (some centres unmarked) [Example 193] gave an IC50 of 0.4 nM.
`C[C@H](c1cn(Cc2ccccc2)c(-c2ccccc2)n1)N(C(=O)[C@H]1CNCCO1)C1CC1` [Example 194] was tested, and the IC50 was 3 nM.
Compound `COc1cccc(Cn2cc([C@@H](C)N(C(=O)[C@H]3CNCCO3)C3CC3)nc2-c2ccccc2)c1` [Example 195] has an IC50 of 3.6 nM.
With `CCc1nc([C@@H](C)N(C(=O)[C@H]2CNC[C@@H](COC)O2)C2CC2)cc2c1ccn2CCCOC` [Example 196] the IC50 was 0.7 nM.
With `COC(=O)NCCCc1cc([C@@H](C)N(C(=O)[C@H]2CNCCO2)C2CC2)sc1-c1ccccc1` [Example 197] the IC50 was 0.2 nM.
`COC(=O)NCC(F)Cn1nc([C@@H](C)N(C(=O)[C@H]2CNCCO2)C2CC2)cc1-c1ccccc1` (some centres unmarked) [Example 198] gave an IC50 of 0.2 nM.
Work on `COC(=O)NCC(F)Cn1nc([C@@H](C)N(C(=O)[C@H]2CNCCO2)C2CC2)cc1-c1ccccc1` (some centres unmarked) [Example 199] yielded an IC50 of 0.2 nM.
Work on `CCCCCn1cc([C@@H](C)N(C(=O)[C@H]2CNCCO2)C2CC2)nc1-c1ccccc1` [Example 200] yielded an IC50 of 4.5 nM.
Work on `COC[C@@H]1CNC[C@H](C(=O)N(C2CC2)[C@H](C)c2cc(OC)c3ccccc3n2)O1` [Example 201] yielded an IC50 of 4.1 nM.
In the case of `COC(=O)NCCCn1cc([C@@H](C)N(C(=O)[C@H]2CNC[C@@H](C)O2)C2CC2)nc1-c1ccccc1` [Example 202], the IC50 is reported as 0.2 nM.
In the case of `COC(=O)NCCCn1cc([C@@H](C)N(C(=O)[C@H]2CNC[C@@H](C(F)(F)F)O2)C2CC2)nc1-c1ccccc1` [Example 203], the IC50 is reported as 0.5 nM.
In the case of `COc1ccc(Cn2cc([C@@H](C)N(C(=O)[C@H]3CNCCO3)C3CC3)nc2-c2ccccc2)cc1` [Example 204], the IC50 is reported as 7.1 nM.
Work on `COCCCCn1nc([C@@H](C)N(C(=O)[C@H]2CNCCO2)C2CC2)cc1-c1ccccn1` [Example 205] yielded an IC50 of 1.4 nM.
With `COC(=O)NCCCc1sc([C@@H](C)N(C(=O)[C@H]2CNCCO2)C2CC2)nc1-c1ccccc1` [Example 206] the IC50 was 1.5 nM.
For `C[C@H](c1cn(Cc2cccc(OC(F)(F)F)c2)c(-c2ccccc2)n1)N(C(=O)[C@H]1CNCCO1)C1CC1` [Example 207], the IC50 was 6.9 nM.
`COC(=O)NCCOc1cc([C@@H](C)N(C(=O)[C@H]2CNCCO2)C2CC2)nn1-c1ccccc1` [Example 208] was tested, and the IC50 was 2.3 nM.
`CCn1nc([C@@H](C)N(C(=O)[C@H]2CNCCO2)C2CC2)cc1CCCNC(=O)OC` [Example 209] gave an IC50 of 2.1 nM.
For `COC(=O)NCCCc1cc([C@@H](C)N(C(=O)[C@H]2CNCCO2)C2CC2)nn1C1CCCCC1` [Example 210], the IC50 was 0.2 nM.
With `COC(=O)NCCCc1cc([C@@H](C)N(C(=O)[C@H]2CNCCO2)C2CC2)nn1-c1ccccc1F` [Example 211] the IC50 was 0.5 nM.
`CCc1cc([C@@H](C)N(C(=O)[C@H]2CNCCO2)C2CC2)nc2ccccc12` [Example 212] showed an IC50 of 4.6 nM.
`COC(=O)NCCCc1cc([C@@H](C)N(C(=O)[C@H]2CNCCO2)C2CC2)nn1C(C)(C)C` [Example 213] gave an IC50 of 0.3 nM.
With `C[C@H](c1cn(Cc2cccc(F)c2)c(-c2ccccc2)n1)N(C(=O)[C@H]1CNCCO1)C1CC1` [Example 214] the IC50 was 2.8 nM.
`COC(=O)NCCCn1cc([C@@H](C)N(C(=O)[C@H]2CNCCO2)C2CC2)nc1C(C)(C)C` [Example 215] was tested, and the IC50 was 0.5 nM.
`COC(=O)NCCCn1nc([C@@H](C)N(C(=O)[C@H]2CNCCO2)C2CC2)c(F)c1-c1ccccn1` [Example 216] showed an IC50 of 0.1 nM.
`CCc1c([C@@H](C)N(C(=O)[C@H]2CNCCO2)C2CC2)nn(CCCNC(=O)OC)c1-c1ccccn1` [Example 217] gave an IC50 of 1.5 nM.
`COC(=O)NCCCc1nc([C@@H](C)N(C(=O)[C@H]2CNCCO2)C2CC2)sc1-c1ccccc1` [Example 218] was tested, and the IC50 was 1.1 nM.
Compound `COC(=O)NCCCn1cc([C@@H](C)N(C(=O)[C@H]2CNC[C@@H](C(F)(F)F)O2)C2CC2)nc1-c1ccccc1` [Example 219] has an IC50 of 0.4 nM.
`COC(=O)NCCCn1nc([C@@H](C)N(C(=O)[C@H]2CNCCO2)C2CC2)c(C)c1-c1ccccn1` [Example 220] gave an IC50 of 0.4 nM.
`COC(=O)NCCCc1cc([C@@H](C)N(C(=O)[C@H]2CNCCO2)C2CC2)nn1-c1ccc(F)cc1` [Example 221] showed an IC50 of 0.3 nM.
For `COC(=O)NCCCc1cc([C@@H](C)N(C(=O)[C@H]2CNCCO2)C2CC2)nn1-c1ccccc1C` [Example 222], the IC50 was 0.5 nM.
`COC(=O)NCCCn1nc([C@@H](C)N(C(=O)[C@H]2CNCCO2)C2CC2)cc1-c1ncc(C)cc1F` [Example 223] was tested, and the IC50 was 0.4 nM.
`COC(=O)NCCCc1csc([C@@H](C)N(C(=O)[C@H]2CNCCO2)C2CC2)c1` [Example 224] showed an IC50 of 3.1 nM.
`COC(=O)NCCCc1cc([C@@H](C)N(C(=O)[C@H]2CNCCO2)C2CC2)nn1C(C)C` [Example 225] gave an IC50 of 0.5 nM.
With `COC(=O)NCCCc1cc([C@@H](C)N(C(=O)[C@H]2CNCCO2)C2CC2)sc1-c1cccc(C)n1` [Example 226] the IC50 was 0.3 nM.
Compound `COC(=O)NCCCc1cc([C@@H](C)N(C(=O)[C@H]2CNCCO2)C2CC2)sc1-c1ccccn1` [Example 227] has an IC50 of 0.2 nM.
`COC(=O)NCCCc1cc([C@@H](C)N(C(=O)[C@H]2CNCCO2)C2CC2)sc1-c1ccc(C)nc1` [Example 228] was tested, and the IC50 was 0.4 nM.
`COC(=O)NCCCc1cc([C@@H](C)N(C(=O)[C@H]2CNCCO2)C2CC2)sc1-c1ccccc1F` [Example 229] was tested, and the IC50 was 0.5 nM.
